# Assay results as given in patent publication US5629298A, “Adenosine as a positive inotrop in the compromised heart” (University of Massachusetts Medical Center, priority 1995, dated 1997).
# Like-named read-outs stand apart in the source and are kept apart here.
# Key:
# rat ventricular myocytes = assay: Contractile function of individual ventricular myocytes (line scan camera edge detection, paced at 0.5 Hz); type: cell-based; details: for +dL/dtmax, maximal rate of shortening / -dL/dtmax, maximal rate of relaxation / DS, duration of shortening / LC, maximum length change (shortening) with contraction / TPS, time-to-peak shortening / TR, time to 75% relaxation: mean ± SE, N = 6; for inhibition at 2 µM / activation at 10 µM: Rattus norvegicus, Ventricular myocyte; for inhibition at 2 µM: PIA at 2 μM, ISO 0.2 μM
# Description: Primary cultures of adult rat ventricular myocytes were prepared essentially according to previously described methods (Romano et al., Am. J. Physiol. 257:H1088 (1989)). Two male Sprague-Dawley rats (Charles River, Wilmington, Mass. or Harlan, Indianapolis, Ind.) were decapitated, and the hearts were rapidly excised and constant pressure (70 cm H2) and nonrecirculated) perfused for 10 minutes through the aortas with filtered (0.45 μm membrane filter) perfusing solution (NaCl, 118 mM; glucose, 10 mM; NaHCO3 25 mM; KCl, 4.69 mM; MgSO4 1.18 mM; and KH2 PO4, 1.18 mM; (pH 7.4)), to which […] was added, at 37° C. After equilibration, the hearts were constant pressure perfused with fresh physiological saline ("PS") containing no added Ca^2+ until spontaneous contractions ceased (i.e., ~30 seconds). The hearts were then perfused for 4-10 minutes in a nonrecirculating manner with PS containing 0.73 mg/ml collagenase, 0.16 mg/ml hyaluronidase, 1 mg/ml recrystallized bovine serum albumin ("BSA") and 48.4 μM Ca^2+ at a rate of 3-4 ml/min/heart. Ventricles, free of atria, were removed from the perfusion system, cut into 8 pieces and placed in a 50 ml Erlenmeyer flask with 5 ml of PS containing 0.73 mg/ml collagenase, 0.16 mg/ml hyaluronidase, 2.5 mg/ml BSA, and 50 μM Ca^2+ (incubation solution). The flask was gently shaken (40 cycles/min) in a reciprocating water bath with continuous gassing (95% O2, 5% CO2) for 7 minutes at 37° C. The incubation solution was aspirated and this shaking procedure was repeated with fresh incubation solution 3-5 times depending on the likelihood that the tissue was ready to dissociate. After the final incubation period, the solution was aspirated and replaced with 10 ml of fresh incubation solution. The flask was then shaken rapidly (120 cycles/min) for 10 minutes with gassing to dissociate the myocytes. The flask contents were filtered through a 250 μm nylon mesh into a 50 ml polypropylene centrifuge tube, to which 40 ml of PS containing 5.95 mg/ml BSA and 99.7 μm Ca^2+ (wash solution) was gradually added.
# The myocytes were allowed to settle for 15 minutes, and the upper two thirds of the wash solution was aspirated. Upon the addition of 30-35 ml of wash solution, this settling step was repeated. The wash solution was aspirated and the myocyte pellet was resuspended in 10 ml of minimum essential medium ("MEM"). The myocyte suspension was allowed to settle for 5 minutes and then brought to a final volume of 22 ml with MEM. Two milliliters of the myocyte suspension was seeded onto each of 60 mm culture dishes containing 2 ml of MEM.
# The contractile function of individual myocytes was assessed by dispersing 50-100 cells in a 506 μl myocyte chamber (11×23×2 mm deep). The chamber (FIG. 1) was continuously suffused (850 μl/min) with fresh suffusion solution ("SS") in mM: 136.4 NaCl, 4.7 KCl, 1.0 CaCl2, 10 hydroxyethylpiperzine-ethanesulfonicacid (HEPES), 1.0 NaHCO3, 1.2 MgSO4, 1.2 KH2 PO4, 10 glucose, 0.6 ascorbate, 1.0 pyruvate) at 20° C. The chamber was mounted on an inverted microscope stage and contained platinum wire electrodes for initiating myocyte contraction at 0.5 Hz (voltage 10% above threshold for 5 msec duration).
# The image of the myocyte was projected via an inverted microscope at 300× onto a line scan camera (Fairchild, Model 1600R) containing a linear array (1×3456) of photodiodes. When aligned with the longitudinal axis of the cell the camera detected the movement of the 2 ends of the myocyte upon contraction (shortening and relengthening). […] When the myocyte was transilluminated, both ends of the cell were easily discriminated. Myocyte length and length change with respect to time for a single contraction was measured by determining the pixels in which the appropriate transitions between light and dark occurred. The line scan camera was calibrated with a stage micrometer scaled in 10 μm divisions. The signals from the camera were directed to a Hewlett Packard computer (Model Vectra RS/20C). […]
# [1] = system: ventricular myocyte membrane adenylyl cyclase; assay: Adenylyl cyclase activity of ventricular myocyte membranes; type: biochemical, rat
# Description: After a 3-4 hour incubation period, myocytes were harvested by placing the culture dishes on ice; aspirating and discarding the culture medium; scraping the attached cells into 1 ml of ice cold buffer (pH 7.4) containing 10 mM HEPES and 1 mM dithiothreitol (DTT); and transferring the mixture to a 40 ml centrifuge tube. The culture dishes were rinsed twice with buffer, and the rinses were added to the centrifuge tube. The myocytes were centrifuged at 45,000 x g for 45 minutes and the supernatant was discarded. The pellet was resuspended in 40 mM HEPES (pH 7.4) to yield 3.5-4 mg protein/ml and homogenized with a small clearance Dounce tissue grinder (8 strokes). The membranes were centrifugated as described above, resuspended (3-4 mg protein/ml) in 40 mM HEPES (pH 7.4), and assayed for adenylyl cyclase activity immediately or stored at -80° C. and assayed within 10 days.
# The assay system used to measure adenylyl cyclase activity minimizes the formation of endogenous adenosine. The assay used was essentially as described by Romano et al. (supra). Myocyte membranes (15-25 μg protein) were incubated in 50 μl of a buffer containing 40 mM HEPES (pH 7.4), 5 mM MgCl2, 1 mM DTT, 5.5 mM KCl, 0.1 mM 2'-deoxy-cAMP (dcAMP), 0.1 mM 2'-deoxy ATP (dATP), 20 mM phosphoenolpyruvate, 2 units pyruvate kinase, 0.25 units adenosine deaminase, 1 mM ascorbic acid, 100 mM NaCl, 0.1 mM ethyleneglycol-bis (β-aminoethylether) N,N,N',N',-tetroaceticacid (EGTA), 10 μM guanosine 5'-triphosphate (GTP), and ~2×10^6 counts/minutes of [α-^32 P]dATP for 20 minutes at 30° C. The reaction was stopped by adding 40 μl of a solution containing 2% sodium dodecyl sulfate (SDS), 45 mM ATP, 1.3 mM cAMP, and [^3 H]dcAMP (~4000 count/min) and by boiling for 2 minutes.
# rat heart = assay: Isolated perfused heart, normoperfused or hypoperfused (mechanically depressed): LVP, +dP/dtmax, -dP/dtmax; details: atenolol; hypoperfusion
# Description: Male Sprague-Dawley rats (500-550 g) were anesthetized with pentobarbital (40 mg/kg, i.p.) and treated with heparin (500 units, i.p.) for 15 minutes. Hearts were excised, rinsed in iced physiological saline ("PS") and perfused with PS (37° C.) via an aortic cannula at a constant rate of 18-20 ml/min. Perfusion pressure ranged from 50 to 60 mm Hg. The PS contained: NaCl, 118 mM; KCl, 4.7 mM; CaCl2, 2.5 mM; NaHCO3, 25 mM; KH2 PO4, 1.2 mM; MgSO4 1.2 mM; glucose 10 mM; and pyruvate 1.8 mM. The pH was maintained at 7.4 by gassing the PS with a 95% O2 /5% CO2 gas mixture. Platinum wire electrodes were inserted into the right atrium to allow pacing of the heart (300 contractions per minute) throughout the perfusion period. Developed left ventricular pressure (LVP) was measured with a saline-filled balloon inserted into the lumen of the left ventricle via the left atrium and attached by a polyethylene cannula to a pressure transducer. The pressure signal was electronically differentiated to obtain the maximum rates of left ventricular pressure development (+dP/dtmax) and relaxation (-dP/dtmax). Balloon volume was varied until the maximal obtainable dP/dt was attained. This optimal preload, ranging from 5 to 10 mm Hg, was maintained constant, permitting isovolumic contraction of the heart. Aortic perfusion pressure was monitored with another pressure transducer. All the LVP, +dP/dtmax, -dP/dtmax and aortic perfusion data were continually recorded on a multichannel polygraph. At the end of the experiment, the wet heart weights were determined; they ranged from 1.4 to 1.8 g.
# After instrumentation, the hearts were normoperfused at 18-20 ml/min for 20 minutes, resulting in an aortic perfusion pressure of 50-60 mm Hg. Isoproterenol, adenosine, CGS-21680, DPCPX, atenolol, or a combination of these agents was administered for 1 to 2 minutes, via the aortic perfusion cannula, at 1/100th the perfusion flow rate, to achieve the stated PS concentrations. Isoproterenol was administered for only 5 seconds. To cause mechanical depression of the perfused hearts, the perfusion flow was lowered 5-6 ml/min. The resulting aortic perfusion pressure decreased to 20-30 mm Hg. The various agents either alone or in combination were administered via the PS to the hypoperfused hearts at 1/100th the perfusion flow rate, at the concentrations indicated.
# [2] = Table 5, CGS-21680 and/or CGS-15943 at 10^-5 M, 10 min
# [3] = Table 3, 1 μM PIA, 0.1 μM ISO, 0.1 μM DPCPX added sequentially every 8-10 min, maximum responses
# [4] = Table 6, 10^-5 M SHA-082, 10^-5 M NECA, 10^-4 M adenosine, 2 × 10^-7 M DPCPX, 10^-5 M CGS-15943
smiles,measurement,setting,value
"Cn1c(=O)c2c(nc(C=Cc3cccc(Cl)c3)n2C)n(C)c1=O [CSC, 8-(3-chlorostyryl)caffeine]",effect on the increase in the contractile variables elicited by 1 μM CGS-21680,"rat ventricular myocytes; CSC at 1 μM, in the presence of 0.2 μM DPCPX",prevented
"N=c1[nH]c2ccc(Cl)cc2c2nc(-c3ccco3)nn12 [CGS-15943, 9-chloro-2-(2-furanyl)-5,6-dihydro-1,2,4-triazolo-(1,5-C)quinazolin-5-imine]",effect on the adenosine induced increases in contractile variables,"rat ventricular myocytes; 10 μM CGS-15943, 100 μM adenosine + 0.2 μM DPCPX",inhibited
same,effect on the increase in myocyte contractility produced by CGS-21680,"rat ventricular myocytes; CGS-15943 (10 μm), CGS-21680 (10 μm)",prevented
same,"+dL/dtmax, maximal rate of shortening",rat ventricular myocytes; [2],146 ± 10 μm/msec
same,"-dL/dtmax, maximal rate of relaxation",rat ventricular myocytes; [2],123 ± 11 μm/msec
same,"DS, duration of shortening",rat ventricular myocytes; [2],331 ± 15 ms
same,"LC, maximum length change (shortening) with contraction",rat ventricular myocytes; [2],18 ± 2 μm
same,"TPS, time-to-peak shortening",rat ventricular myocytes; [2],122 ± 3 ms
same,"TR, time to 75% relaxation",rat ventricular myocytes; [2],285 ± 10 ms
same,effect on the CGS-21680 increase in cyclase activity,"[1]; 10 μM CGS-15943, 0.1 μM DPCPX present",prevented
same,effect on the NECA increase in membrane cyclase activity,"[1]; CGS-15943 at 10 μM, both in the absence and presence of DPCPX",prevented
"CC(Cc1ccccc1)Nc1ncnc2c1ncn2[C@@H]1O[C@H](CO)[C@@H](O)[C@H]1O (stereo partly drawn) [PIA, phenylisopropyladenosine]",effect on ventricular myocyte contractile variables,rat ventricular myocytes; PIA at 1 μM alone,no effect
same,inhibition at 2 µM,rat ventricular myocytes; read-out: reduction of the ISO-induced decrease in DS,47%
same,inhibition at 2 µM,rat ventricular myocytes; read-out: reduction of the ISO-induced decrease in TPS,82%
same,inhibition at 2 µM,rat ventricular myocytes; read-out: reduction of the ISO-induced decrease in TR,37%
same,inhibition at 2 µM,rat ventricular myocytes; read-out: reduction of the ISO-induced increase in +dL/dtmax,60%
same,inhibition at 2 µM,rat ventricular myocytes; read-out: reduction of the ISO-induced increase in -dL/dtmax,78%
same,inhibition at 2 µM,rat ventricular myocytes; read-out: reduction of the ISO-induced increase in LC,91%
same,"+dL/dtmax, maximal rate of shortening",rat ventricular myocytes; [3],115 ± 17 μm/msec
same,"-dL/dtmax, maximal rate of relaxation",rat ventricular myocytes; [3],85 ± 21 μm/msec
same,"DS, duration of shortening",rat ventricular myocytes; [3],374 ± 23 ms
same,"LC, maximum length change (shortening) with contraction",rat ventricular myocytes; [3],16 ± 2 μm
same,"TPS, time-to-peak shortening",rat ventricular myocytes; [3],153 ± 5 ms
same,"TR, time to 75% relaxation",rat ventricular myocytes; [3],308 ± 8 ms
CC(C)NCC(O)COc1ccc(CC(N)=O)cc1 (stereo not drawn) [atenolol],effect on the inotropic responses induced by adenosine or adenosine plus DPCPX,rat heart,did not affect
same,effect on the isoproterenol elicited contractile responses,rat heart,completely prevented
"CCNC(=O)[C@H]1O[C@@H](n2cnc3c(N)ncnc32)[C@H](O)[C@@H]1O [NECA, N-ethylcarboxamidoadenosine]",activation at 10 µM,rat ventricular myocytes; read-out: increase in DS,21%
same,activation at 10 µM,rat ventricular myocytes; read-out: increase in LC,24%
same,activation at 10 µM,rat ventricular myocytes; read-out: increase in TPS,20%
same,activation at 10 µM,rat ventricular myocytes; read-out: increase in TR,28%
same,"+dL/dtmax, maximal rate of shortening",rat ventricular myocytes; [4],203 ± 9 μm/msec
same,"-dL/dtmax, maximal rate of relaxation",rat ventricular myocytes; [4],149 ± 12 μm/msec
same,"DS, duration of shortening",rat ventricular myocytes; [4],350 ± 15 ms
same,"LC, maximum length change (shortening) with contraction",rat ventricular myocytes; [4],21 ± 2 μm
same,"TPS, time-to-peak shortening",rat ventricular myocytes; [4],140 ± 5 ms
same,"TR, time to 75% relaxation",rat ventricular myocytes; [4],340 ± 12 ms
same,contractile responses in the presence of 10 μM CGS-15943,rat ventricular myocytes; agonist at 10 μM,not observed
same,increase in adenylyl cyclase activity,[1]; NECA 0 to 1 mM (FIG. 10),approximately two-fold
same,EC50,"[1]; without DPCPX, read-out: EC50 for activation of cyclase",17 ± 5.7 µM
